Test results from US12194007B2, “Pharmaceutical composition for preventing or treating cancer, comprising gossypol, phenformin, and anticancer agent” (National Cancer Center, priority 2018, dated 2025).

Columns and labels:
[1] = system: BT549 cell line or MB231 cell line; test: SRB cell proliferation assay, breast cancer cell lines; assay type: cell-based
[2] = system: PC3 cell line or DU145 cell line; test: SRB cell proliferation assay, prostate cancer cell lines; assay type: cell-based; conditions: gossypol 5 μM, phenformin 100 μM, doxorubicin 1 nM, single, double or triple (Table 19, FIG. 7A)
[3] = system: PC3 cells xenograft tumor; test: Prostate cancer mouse model, tumor growth; assay type: in vivo, Balb/c-nu mice; conditions: gossypol 80 mg/kg, phenformin 100 mg/kg, doxorubicin 5 mg/kg, single, double or triple (Table 28, FIGS. 13A, 13B)

COc1cccc2c1C(=O)c1c(O)c3c(c(O)c1C2=O)C[C@@](O)(C(=O)CO)C[C@@H]3O[C@H]1C[C@H](N)[C@H](O)[C@H](C)O1 [doxorubicin]
synergistic effect of anticancer action when mixed with gossypol and phenformin ([1]; breast cancer, named agent + gossypol 5 μM + phenformin 100 μM (Tables 13-15)): not exhibited
effect of inhibiting cell proliferation in the triple drug treatment group ([1]; cisplatin 1 μM or doxorubicin 1 μM mixed with gossypol 5 μM and phenformin 100 μM (Tables 14-15, FIGS. 5B, 5C)): level similar to that of the double drug treatment group
degree of cell proliferation with respect to the untreated control [2]: proliferation of cancer cells could be inhibited at a significant level
tumor growth level [3]: significantly inhibited tumor growth compared to the solvent control group
